PMC7505981, “Preparation of a whole cell catalyst overexpressing acetohydroxyacid synthase of Thermotoga maritima and its application in the syntheses of α-hydroxyketones” (Scientific Reports, 2020)

Molecular target: T1, TmcAHAS (large catalytic subunit of acetohydroxyacid synthase of Thermotoga maritima) (Thermotoga maritima, UniProt Q9WZ18)
T1 construct: gene TM_0548; catalytic subunit alone, without regulatory subunit; gene from genomic DNA in pET28a (NdeI/BamHI), N-terminal His6 tag, E. coli Rosetta(DE3), Ni-NTA purified, about 68 kDa on SDS-PAGE; forward primer after NdeI site encodes MLLDEI
T1 sequence (Q9WZ18 entry or part of it): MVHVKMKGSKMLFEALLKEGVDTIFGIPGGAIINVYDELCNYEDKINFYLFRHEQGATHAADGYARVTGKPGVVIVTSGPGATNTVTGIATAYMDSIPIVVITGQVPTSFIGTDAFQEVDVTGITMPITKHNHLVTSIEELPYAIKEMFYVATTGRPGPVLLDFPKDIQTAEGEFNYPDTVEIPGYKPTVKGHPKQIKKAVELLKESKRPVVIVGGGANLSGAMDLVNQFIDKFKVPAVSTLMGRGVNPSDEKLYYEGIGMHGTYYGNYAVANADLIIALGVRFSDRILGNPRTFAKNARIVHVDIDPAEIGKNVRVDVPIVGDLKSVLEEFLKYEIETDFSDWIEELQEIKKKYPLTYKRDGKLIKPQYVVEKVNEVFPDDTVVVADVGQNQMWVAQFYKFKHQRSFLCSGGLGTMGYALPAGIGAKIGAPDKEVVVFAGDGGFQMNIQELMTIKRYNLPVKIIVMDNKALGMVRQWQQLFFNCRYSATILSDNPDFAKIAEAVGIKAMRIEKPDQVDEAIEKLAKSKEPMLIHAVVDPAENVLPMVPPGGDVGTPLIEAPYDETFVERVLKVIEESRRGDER
Test: photometric creatine/alpha-naphthol assay of acetoin at […] nm, Michaelis-Menten fit
Type: biochemical
Details: 50 mM phosphate pH 8.0, 80 °C, 10 min, 10 μM FAD, 1 mM ThDP, 10 mM Mg2+; catalytic subunit alone; read-out: Km for pyruvate

- Km: 19.1 ± 1.6 mM
Compound: CC(=O)C(=O)O [pyruvate]
